# In patent US20240124454A1, “TRICYCLIC COMPOUND AND USE THEREOF” (NANJING ZAIMING PHARMACEUTICAL CO., LTD., priority 2020, published 2024):
# Where two headings read alike, the source gives them in different places.
# Key:
# HCT116 MTAP^−/− cells = assay: Cell proliferation inhibition test (Cell-Titer Glo), HCT116 MTAP−/−; assay type: cell-based, human; conditions: 6 days, read-out: HCT116 MTAP−/− Antiproliferative activity IC50
# Method: Test Example 3. Cell Proliferation Inhibition Test of Human Colon Cancer HCT116 WT Cells and HCT116 MTAP-1-Cells
# The brief introduction of the test principle: After the test MAT2A inhibitor was incubated with cancer cells for a period of time, the effect of the test compound on cell proliferation was measured using a cell proliferation count method based on the ATP content.
# Reference: The experiment referred to the method disclosed in patent WO2018045071.
# Material and cell: HCT116 WT cells and HCT116 MTAP^−/− cells were purchased from KYinno; fetal bovine serum, McCoy's 5a culture medium, and penicillin-streptomycin were purchased from Gibco Company (U.S.), 96-well plates were purchased from Corning Company (U.S.), and the Cell-Titer Glo reagent was purchased from Promega Company (U.S.).
# Cell culture: HCT116 WT cells and HCT116 MTAP^−/− cells were cultured with a McCoy's 5a medium containing 10% fetal bovine serum+1% penicillin-streptomycin at 37° C. with 5% CO2.
# Cells at logarithmic growth phase were available for the experiment.
# Cell proliferation activity test: The Cell-Titer Glo reagent was used to test the compound for inhibitory activity on proliferation of both HCT116 WT and HCT116 MTAP^−/− cell strains. The cells were adjusted to a concentration of 400 cells per well, seeded on a 96-well plate, and incubated overnight at 37° C. with 5% CO2.
# In the experimental group, the test compound was diluted sequentially with DMSO and a culture medium, and transferred to a cell plate at a final concentration of 10 μM, 3-fold dilution. The cells were continuously cultured at 37° C. with 5% CO2 for 6 days. The Cell-Titer Glo reagent was added and the cell activity was measured.
# A negative control group and a positive control group were respectively used as Bottom and Top. The negative control group was not added with cells, only added with the culture medium in the same volume, and other operations were consistent with those of the experimental group. The positive control group was not added with the test compound, only added with DMSO in the same volume, and other operations were consistent with those of the experimental group.
# The % Compound inhibition was calculated and fitted to give the IC50 of the compound.
# % Compound inhibition=1-100%×(Signal−Bottom)/(Top−Bottom).
# Signal referred to the signal value of the experimental group, Bottom referred to the average signal value of the negative control group, and Top referred to the average signal value of the positive control group.
# HCT116 MTAP^−/− cells are cells not expressing MTAP protein obtained by site-directed knockout of wild type HCT116 (HCT116 WT) cells by gene knockout. Synthetic lethality will occur due to MAT2A inhibition and the deletion of MTAP, thereby causing tumor cell death. The activity and selectivity of the MAT2A inhibitor can be evaluated by testing the antiproliferative activity of the MAT2A inhibitor on human colon cancer HCT116 MTAP^−/− cells and human colon cancer HCT116 WT.
# CYP2C9 = CYP2C9 (Homo sapiens (Human), UniProt P11712); assay: CYP2C9 inhibition in human liver microsomes (diclofenac substrate); assay type: in vitro ADME; conditions: human liver microsome
# Sequence of CYP2C9 (P11712 whole entry): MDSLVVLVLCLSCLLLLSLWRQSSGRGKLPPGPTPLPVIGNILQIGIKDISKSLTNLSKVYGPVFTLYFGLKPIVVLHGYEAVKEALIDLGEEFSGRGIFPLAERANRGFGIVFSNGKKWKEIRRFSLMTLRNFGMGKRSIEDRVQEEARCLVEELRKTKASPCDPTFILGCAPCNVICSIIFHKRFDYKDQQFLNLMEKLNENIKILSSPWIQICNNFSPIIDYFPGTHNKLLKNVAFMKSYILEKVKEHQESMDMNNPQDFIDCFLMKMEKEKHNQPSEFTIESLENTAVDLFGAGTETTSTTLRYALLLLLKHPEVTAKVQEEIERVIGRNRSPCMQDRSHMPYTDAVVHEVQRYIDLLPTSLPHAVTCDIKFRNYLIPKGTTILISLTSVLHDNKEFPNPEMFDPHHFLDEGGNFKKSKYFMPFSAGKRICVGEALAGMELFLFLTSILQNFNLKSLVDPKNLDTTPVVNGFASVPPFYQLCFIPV
# Method: Test Example 7. Inhibitory Effect of Compound of the Present Application on Enzymatic Activity of CYP2C9, CYP2D6, and CYP3A4
# The inhibition of CYP2C9, CYP2D6, and CYP3A4 activity by the compound of the present application was determined using the following method.
# I. Experimental materials and instruments • 1. Human liver microsome (Corning 452117) • 2. NADPH (Solarbio 705Y021) • 3. Positive substrates diclofenac (Sigma SLBV3438), dextromethorphan (TRC 3-EDO-175-1), and midazolam (Cerilliant FE01161704) • 4. Positive inhibitors sulfaphenazole (D. Ehrenstorfer GmbH 109012), quinidine (TCI WEODL-RE), and ketoconazole (Sigma 100M1091V) • 5. AB Sciex Triple Quad 5500 liquid chromatography-mass spectrometry system
# 1. Preparation of 100 mM phosphate-buffered saline (PBS): 7.098 g Na2HPO4 was weighed. 500 mL pure water was added. The mixture was dissolved by sonication to give solution A. 3.400 g KH2PO4 was weighed. 250 mL pure water was added. The mixture was dissolved by sonication to give solution B. The solution A was placed in a stirrer, and the solution B was slowly added until the pH reached 7.4, so that the 100 mM PBS buffer was prepared.
# 2. A 10 mM NADPH solution was prepared with a 100 mM PBS buffer. A 10 mM stock solution of the compound of the present application was diluted with DMSO to give a compound working solution at a concentration of 200×(6000, 2000, 600, 200, 60, 20, and 0 μM). The positive inhibitor stock solution was diluted with DMSO to give a positive inhibitor working solution at a concentration of 200×(sulfaphenazole, 1000, 300, 100, 30, 10, 3, and 0 μM; quinidine/ketoconazole, 100, 30, 10, 3, 1, 0.3, and 0 μM). Substrate working solutions (120 μM diclofenac, 400 μM dextromethorphan, and 200 μM midazolam) at a concentration of 200× were prepared with water, acetonitrile, or acetonitrile/methanol.
# 3. 2 μL of 20 mg/mL liver microsome solution, 1 μL of substrate working solution, 1 μL of compound working solution, and 176 μL of PBS buffer were taken, mixed well, and placed in a 37° C. water bath for pre-incubation for 15 min. 1 μL of sulfaphenazole, quinidine, or ketoconazole working solution was added to the positive control group instead of the compound working solution. At the same time, 10 mM NADPH solution was placed together in the 37° C. water bath for pre-incubation for 15 min. After 15 min, 20 μL of NADPH was added to each well to initiate the reaction. The mixture was incubated at 37° C. for 5 min (CYP2C9), 20 min (CYP2D6), or 5 min (CYP3A4). All incubated samples were in duplicate. After incubation for the corresponding period of time, 400 μL of icy methanol containing internal standard was added to all samples to stop the reaction. The mixture was vortexed, mixed well, and centrifuged for 40 min at 4° C. at 3220 g. 100 μL of the supernatant was transferred to a feeding plate after the centrifugation was completed, and 100 μL ultrapure water was added. The mixture was well mixed for LC-MS/MS analysis.
# The reduction of metabolite production in the treatment groups versus the control group was compared by the peak area ratios of the sample to the internal standard, and the IC50 value was calculated using Excel XLfit 5.3.1.3.
# Percentages of remaining activity were calculated according to the following formula:
# Remaining activity%=peak area ratio of metabolite to internal standardtest sample/peak area ratio of metabolite to internal standardblank solvent×100%.
Structure (SMILES),"IC50 (HCT116 MTAP^−/− cells; Homo sapiens, HCT-116, 144 h)",IC50 (CYP2C9),IC50 (HCT116 MTAP^−/− cells)
"Cc1ncccc1-n1c(=O)c2ncn(C)c2c2ccc(C(F)(F)F)nc21 (atropisomer, axis not shown) [Compound 20, 1-methyl-5-(2-methylpyridin-3-yl)-7-(trifluoromethyl)-1,5-dihydro-4H-imidazo[4,5-c][1,8]naphthyridin-4-one]",76.5 nM,> 30000 nM,–
"Cn1cnc2c(=O)n(-c3cccc(F)c3Cl)c3nc(C(F)(F)F)ccc3c21 (atropisomer, axis not shown) [Compound 25, 5-(2-chloro-3-fluorophenyl)-1-methyl-7-(trifluoromethyl)-1,5-dihydro-4H-imidazo[4,5-c][1,8]naphthyridin-4-one]",155 nM,> 30000 nM,–
"Cn1cnc2c(=O)n(-c3cccc(F)c3Cl)c3nc(C(F)(F)F)ccc3c21 (single isomer, unassigned) [Compound 25-P2, 5-(2-chloro-3-fluorophenyl)-1-methyl-7-(trifluoromethyl)-1,5-dihydro-4H-imidazo[4,5-c][1,8]naphthyridin-4-one]",70.5 nM,> 30000 nM,–
"Cn1cnc2c(=O)n(-c3cccnc3C(F)(F)F)c3nc(C(F)(F)F)ccc3c21 (single isomer, unassigned) [Compound 41-P2, 1-methyl-7-(trifluoromethyl)-5-(2-(trifluoromethyl)pyridin-3-yl)-1,5-dihydro-4H-imidazo[4,5-c][1,8]naphthyridin-4-one]",80.1 nM,> 30000 nM,–
"Cn1cnc2c(=O)n(-c3cccnc3C3CC3)c3nc(C(F)(F)F)ccc3c21 (single isomer, unassigned) [Compound 42-P2, 5-(2-cyclopropylpyridin-3-yl)-1-methyl-7-(trifluoromethyl)-1,5-dihydro-4H-imidazo[4,5-c][1,8]naphthyridin-4-one]",44.2 nM,> 30000 nM,–
"Cn1cnc2c(=O)n(-c3cccnc3C3CC3)c3cc(C(F)(F)F)ccc3c21 (single isomer, unassigned) [Compound 48-P2, 5-(2-cyclopropylpyridin-3-yl)-1-methyl-7-(trifluoromethyl)-1,5-dihydro-4H-imidazo[4,5-c]quinolin-4-one]",90.9 nM,> 30000 nM,–
"Cn1cnc2c(=O)n(-c3cccnc3C3CC3)c3cc(Cl)ccc3c21 (single isomer, unassigned) [Compound 49-P2, 7-chloro-5-(2-cyclopropylpyridin-3-yl)-1-methyl-1,5-dihydro-4H-imidazo[4,5-c]quinolin-4-one]",34.4 nM,> 30000 nM,–
"O=c1c2ncoc2c2ccc(C(F)(F)F)nc2n1-c1cccnc1C1CC1 (single isomer, unassigned) [Compound 81-P2, 5-(2-cyclopropylpyridin-3-yl)-7-(trifluoromethyl)oxazolo[4,5-c][1,8]naphthyridin-4(5H)-one]",111 nM,> 30000 nM,–
"Cn1cnc2c(=O)n(-c3cccc(F)c3Cl)c3cc(Cl)ccc3c21 [Compound 39, 7-chloro-5-(2-chloro-3-fluorophenyl)-1-methyl-1,5-dihydro-4H-imidazo[4,5-c]quinolin-4-one]",–,> 30000 nM,106 nM
"Cc1ncccc1-n1c(=O)c2ncoc2c2ccc(C(F)(F)F)nc21 [Compound 40, 5-(2-methylpyridin-3-yl)-7-(trifluoromethyl)oxazolo[4,5-c][1,8]naphthyridin-4(5H)-one]",120 nM,> 30000 nM,–
"Cc1ncccc1-n1c(=O)c2ncn(C)c2c2ccc(C(F)(F)F)cc21 [Compound 45, 1-methyl-5-(2-methylpyridin-3-yl)-7-(trifluoromethyl)-1,5-dihydro-4H-imidazo[4,5-c]quinolin-4-one]",134 nM,> 30000 nM,–
